Measured values as given in patent US9377466B2, “Compounds and methods” (Modpro AB, priority 2010, dated 2016).
Side chains are listed from the residue outwards. * marks the point of attachment. Benzoyl(4-SO2NH2) = NS(=O)(=O)c1ccc(C(=O)*)cc1; Acridin9yl = c1ccc2c(*)c3ccccc3nc2c1; X1 = COc1ccc2cc(C(=O)*)c(=O)oc2c1; Ahx = NCCCCCC(=O)O

Columns and labels:
[1] = tested on: human Carbonic Anhydrase (HCAI and HCAII); assay: Extraction from lysed blood by binders on nanoparticles (SDS-PAGE, MS); format: binding; details: lysed fresh blood, silver stained gel
Procedure: The selected binders were resynthesized with an Acm-protected Cys residue in position 24. After removal of the Acm group the binders were immobilized on polystyrene nanoparticles coated with Pluronic® F108-PDS, by incubation for 1 hour in 10 mM Phosphate buffer at pH 7.4 containing 150 mM NaCl. The coating material forms monolayers of PEG equipped with activated disulfide groups that spontaneously react with free thiols under the release of 2-mercaptopyridine (Fromell, K., Hulting, G., Ilichev, A., Larsson, A. & Caldwell, K. C. Analytical Chemistry 79, 8601-07 (2007)).
Approximately 60 μL of freshly drawn blood was lysed by dilution in 240 μL of distilled water followed by centrifugation to remove cell debris. HCAII resides in the red blood cells and in order to access the protein, cells have to be lysed. The supernatant was isolated and incubated with the functionalized nanoparticles for 30 minutes to allow them to capture HCAII. The particles were washed three times in PBS, and centrifuged after each wash. The binders and the captured proteins were cleaved from the particles using dithiothreitol and separated from the particles by centrifugation. […]
There are two isoforms of human Carbonic Anhydrase, HCA I and HCAII, in blood. […] The bands from the gel were cut, […] digested and analysed by MALDI-TOF-MS, displaying that the bands contained both isoforms. […]

HCAII = target: T1, HCAII (Homo sapiens, UniProt P00918); assay: SPR biosensor analysis, immobilized HCAII; format: binding; details: ratio of SPR dissociation constants
T1 construct: purchased Sigma
Procedure: The sixteen polypeptide conjugates were also characterized by SPR biosensor analysis (Biacore®, GE Healthcare), using a Biacore® 2000 instrument, Biacore® CM-5 chip and HBS-EP buffer pH 7.4 (Biacore®, GE Healthcare) with addition of 1% DMSO for the interaction studies. Peptide solutions were prepared by dilution in buffer from 20 μM stock solutions in DMSO. HCAII was immobilized on the chip using standard EDC/NHS coupling in Acetate buffer pH 5.5. The binders were allowed to flow over the chip at 7 concentrations in the range from 1 nM to 500 nM and the interactions were evaluated using a 1:1 binding model (BiaEvaluation).
HCAI and HCAII were immobilized in different flowcells on a CM-5 (Biacore) chip using standard EDC/NHS coupling in Acetate buffer at pH 5.5.
SPR measurements were performed on a Biacore® 2000 instrument, with the proteins immobilized on a Biacore® CM-5 sensor chips (GE Healthcare). All interaction studies were performed in Biacore® HSB-EP buffer with the addition of 1% (v/v) DMSO. HCAII (Sigma, lyophilized powder) was dissolved in Acetate buffer pH 5.5 to a 2 mg/mL solution. HCAII were conjugated to the surface by EDC/NHS coupling reactions in Acetate buffer pH 5.5. Solutions of the polypeptide binders were prepared in HBS-EP buffer from stock solutions of 20 μM in DMSO and allowed to flow over the surface at 20 μL/min, with blank injections after every series. […]

Solubility in buffer = details: sequence conjugated to a fluorescein probe
hAChE [2] = details: known inhibitor, literature; cited from earlier work
[3] = CD spectroscopy, mean residue ellipticity of the sixteen scaffold polypeptides; format: physicochemical; details: error ±1000
Procedure: The mean residue ellipticities at 222 nm, [θ]222, □ of the sixteen scaffold polypeptides were recorded at two concentrations, approximately 30 μM and approximately 1 μM, to characterize the state of aggregation, cf.
The degree of helix formation is related to the monomer-dimer equilibrium since monomers are unordered with low helical content whereas dimers are highly helical. […] While the ^1H NMR spectra have not been recorded of all sequences and of all polypeptide conjugates, it is likely that the sequences presented here are best described as molten globules.

α-casein = assay: Three-step fluorescence titration with α-casein (microtitre plate); format: binding; details: polypeptide without PP1; binder in the absence of Zn^2+ ions
Procedure: In a preliminary and simple assay executable in microtitre plate format, each of the eight binder candidates at a concentration of 500 nM in 10 mM HEPES buffer and 150 mM NaCl at pH 7.2, equipped with the fluorophor 7-methoxycoumarin-3-carboxylic acid, were titrated with α-casein in three steps (FIG. 8). Concentrations of peptides were determined from the absorbance of the coumarine probe and stock solutions at concentrations of 5 μM were prepared from which aliqiuots were transferred to the microtitre plate. […] The fluorescence emission spectre were recorded in the absence of protein, and in the presence of 500 nM, 1000 nM and 1500 nM protein to determine in a qualitative way whether or not binding was saturated at 500 nM concentration of both binder and protein. Saturation within experimental error at those concentrations is compatible with low nM affinity and tight binding.
All fluorescence experiments were conducted in 96 well polystyrene plates. All readings were performed by plate reader Molecular Devices Spectra max GEMINI XPS at 25° C. Each plate contained 300 μL of analyte. All polystyrene plates were specially prepared prior the measurements in order to minimize the unspecific binding of the analyte. All wells were filled with 1% aqueous solution of Pluronic and left overnight. […]

phosphopeptides = details: literature; cited from earlier work
hAChE [4] = target: T2, hAChE (Homo sapiens, UniProt P22303); assay: Capture of hAChE from cerebrospinal fluid by binder on nanoparticles (SDS-PAGE, nanoparticle ELISA); format: binding; details: binder on Pluronic-coated polystyrene nanoparticles, patient CSF, sandwich ELISA
T2 construct: monitoring the capturing of hAChE from cerebrospinal fluid (CSF) obtained from Uppsala University hospital; from tissue; host or cells: human cerebrospinal fluid (Uppsala University Hospital)
Procedure: The selectivity of 4-C10L17-Ac was determined by monitoring the capturing of hAChE from cerebrospinal fluid (CSF) obtained from Uppsala University hospital. CSF represents a complex biological milieu with several other proteins in high concentration and one of considerable interest with regards to future applications. The selected binder was resynthesized with an acetamidomethyl-(Acm-) protected Cys residue in position 24, instead of an Ala in this position, and attached to polystyrene nanoparticles coated with Pluronic® F108-PDS by disulfide bond formation after Acm deprotection. […] After the washing steps the particles were analyzed by ELISA and gel electrophoresis. […]
The capture of hAChE by 4-C10L17-Ac was also analyzed by a nanoparticle ELISA based on luminescence. […] After three washing steps the substrate luminol was added and the resulting luminescent signal recorded. […]
Pluronic F108-PDS (Allvivo Inc.) was adsorbed to polystyrene latex nanoparticles (Bangs laboratories Inc.) by incubating a 2% (w/v) suspension of particles with 10 mg/mL of Pluronic F108-PDS over night at room temperature under constant shaking. […] Aliquots of 8 μL of the supernatants were analyzed by gradient SDS-PAGE gels electrophoresis using NuPAGE® Novex Bis-Tris 4-12% (v/w) gel and MES running buffer (Invitrogen). […]

T2 sequence (P22303 32-614): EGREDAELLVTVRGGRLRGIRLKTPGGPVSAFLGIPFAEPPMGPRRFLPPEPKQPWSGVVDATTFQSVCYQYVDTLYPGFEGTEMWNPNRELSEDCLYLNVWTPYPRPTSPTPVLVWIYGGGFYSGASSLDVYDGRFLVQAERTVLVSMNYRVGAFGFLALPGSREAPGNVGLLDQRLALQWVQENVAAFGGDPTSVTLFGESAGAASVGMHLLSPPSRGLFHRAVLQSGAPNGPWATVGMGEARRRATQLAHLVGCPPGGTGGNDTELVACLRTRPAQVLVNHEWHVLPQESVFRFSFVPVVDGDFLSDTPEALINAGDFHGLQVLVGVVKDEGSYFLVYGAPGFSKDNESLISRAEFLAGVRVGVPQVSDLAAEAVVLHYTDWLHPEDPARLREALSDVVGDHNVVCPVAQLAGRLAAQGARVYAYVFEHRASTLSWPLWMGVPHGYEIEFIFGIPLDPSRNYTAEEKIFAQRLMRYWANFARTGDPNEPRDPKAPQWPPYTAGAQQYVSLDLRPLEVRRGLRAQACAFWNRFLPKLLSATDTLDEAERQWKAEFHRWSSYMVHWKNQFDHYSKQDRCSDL

## Ac-NAADLEAK([Ahx-Benzoyl(4-SO2NH2)])IRHLAEK(X1)LAARGPVDAAQLAEQLARRFEAFARAG-NH2 (C-terminus assumed) [3-C15L8-B]
[1]
  proteins extracted from lysed blood: extract Carbonic Anhydrases predominantly

## Ac-NAADLEARIRHLRERLAARGPRDAAQLAEQLARK([Ahx-Benzoyl(4-SO2NH2)])FEK(X1)FARAG-NH2 (N-terminus and C-terminus assumed) [4-C37L34-B]
HCAII
  discrimination between HCAI and HCAII (factor): approximately 30
[1]
  proteins extracted from lysed blood: extract Carbonic Anhydrases predominantly
Solubility in buffer
  solubility in buffer: poorly soluble

## Nc1c2ccccc2nc2ccccc12 [9-aminoacridine]
hAChE [2]
  reported affinity: 30 to 100 nM

## 4-C10L17: SEQ ID NO: 8 NAADLEARIKHLRERLKARGPRDAAQLAEQLARAFERFARAG
[3]; high concentration 30-230 μM as listed per peptide
  [θ]222 at high concentration: −19500 deg cm^2 dmol^−1
[3]; low concentration 1-5 μM as listed per peptide
  [θ]222 at low concentration: −11800 deg cm^2 dmol^−1
α-casein
  effect of α-casein on fluorescence emission spectrum, negative controls: No effect

## O=C(O)c1cc(CN(Cc2ccccn2)Cc2ccccn2)cc(CN(Cc2ccccn2)Cc2ccccn2)c1 [PP1, 3,5-Bis[[bis(2-pyridylmethyl)amino]methyl]benzoic acid]
phosphopeptides
  dissociation constants for phosphopeptides: μM range

## Ac-NAADLEARIK(X1)HLRERLK([Ahx-Ahx-Acridin9yl])ARGPRDAAQLAEQLARAFERFARAG-NH2 (C-terminus assumed) [4-C10L17-Ac]
hAChE [4]
  capture of hAChE from CSF: selectively extract hAChE from CSF
